Measured values taken from ChEMBL document CHEMBL5104192, “Late-Stage Functionalization with Cysteine Staples Generates Potent and Selective Melanocortin Receptor-1 Agonists” (J Med Chem, 2022).
*1 amine or outer side, *2 acyl side, *3 side chain or, on linkers, in order; H or OH if unused. Where a SMILES comes first, the peptide text is derived from it. Bridges are numbered along the chain shown (N, C = ends). [ ]: non-standard residue; d: D form. X5 = O=C(O)CCOCCOCCOCCOCCNC(=O)OCC1C2CCc3c([*:1])nnc([*:2])c3CCC21; X2 = NCCOCCOCCNC(=O)OCC1C2CCc3c([*:1])nnc([*:2])c3CCC21; Maleimide(3,4-diyl) = O=C1NC(=O)C([*:2])=C1[*:1]; C6F4(1,4-diyl) = Fc1c(F)c([*:2])c(F)c(F)c1[*:1]; X4 = C#CCCCCN1C(=O)C([*:1])=C([*:2])C1=O; oXylylene = c1ccc(C[*:2])c(C[*:1])c1; pXylylene = c1cc(C[*:2])ccc1C[*:1]; NMeR = CN[C@@H](CCCNC(=N)N)C(=O)O; Nle = CCCC[C@H](N)C(=O)O

Tests used:
[1] = biological target: T1, Melanocyte-stimulating hormone receptor (Homo sapiens, UniProt Q01726); assay: Displacement of [125I]-NDP-alpha-MSH from human MC1R expressed in HEK2936E cell membrane measured after 16 to 23 hrs by 1450 microbeta trilux scintillation proximity assay; type: cell membranes; settings: for pKi: hek2936e
Melanocortin receptor 3 [2] = biological target: T2, Melanocortin receptor 3 (Homo sapiens, UniProt P41968); assay: Displacement of [125I]-NDP-alpha-MSH from human MC3R expressed in HEK2936E cell membrane measured after 16 to 23 hrs by 1450 microbeta trilux scintillation proximity assay; type: cell membranes; settings: for pKi: hek2936e
Melanocortin receptor 4 [3] = biological target: T3, Melanocortin receptor 4 (Homo sapiens, UniProt P32245); assay: Displacement of [125I]-NDP-alpha-MSH from human MC4R expressed in HEK2936E cell membrane measured after 16 to 23 hrs by 1450 microbeta trilux scintillation proximity assay; type: cell membranes
[4] = biological target: T1, Melanocyte-stimulating hormone receptor; assay: Agonist activity at human MC1R expressed in HEK2936E cells assessed as cAMP production in presence of IBMX by time resolved fluorescence assay; type: functional, cell-based; settings: for pEC50: hek2936e
Melanocortin receptor 3 [5] = biological target: T2, Melanocortin receptor 3; assay: Agonist activity at human MC3R expressed in HEK2936E cells assessed as cAMP production in presence of IBMX by time resolved fluorescence assay; type: functional, cell-based; settings: for pEC50: hek2936e
Melanocortin receptor 4 [6] = biological target: T3, Melanocortin receptor 4; assay: Agonist activity at human MC4R expressed in HEK2936E cells assessed as cAMP production in presence of IBMX by time resolved fluorescence assay; type: functional, cell-based
Melanocortin receptor 5 = Melanocortin receptor 5 (Homo sapiens, UniProt P33032); assay: Agonist activity at human MC5R expressed in HEK2936E cells assessed as cAMP production in presence of IBMX by time resolved fluorescence assay; type: functional, cell-based
Homo sapiens [7] = species on record: Homo sapiens; assay: Selectivity ratio of Ki for human MC3R to Ki for human MC1R
Homo sapiens [8] = species on record: Homo sapiens; assay: Selectivity ratio of Ki for human MC4R to Ki for human MC1R
Homo sapiens [9] = species on record: Homo sapiens; assay: Selectivity ratio of EC50 for human MC3R to EC50 for human MC1R
Homo sapiens [10] = species on record: Homo sapiens; assay: Selectivity ratio of EC50 for human MC4R to EC50 for human MC1R

T3 sequence (P32245 whole entry): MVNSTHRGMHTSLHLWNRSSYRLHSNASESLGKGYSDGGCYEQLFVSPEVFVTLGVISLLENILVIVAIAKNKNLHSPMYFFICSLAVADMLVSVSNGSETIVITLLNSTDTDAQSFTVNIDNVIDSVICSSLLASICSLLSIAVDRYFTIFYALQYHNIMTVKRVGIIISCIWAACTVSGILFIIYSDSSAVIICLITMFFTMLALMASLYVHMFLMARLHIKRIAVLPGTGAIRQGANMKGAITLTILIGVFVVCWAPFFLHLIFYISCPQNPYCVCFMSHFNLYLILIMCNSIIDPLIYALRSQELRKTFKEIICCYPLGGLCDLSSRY
T2 sequence (P41968 whole entry): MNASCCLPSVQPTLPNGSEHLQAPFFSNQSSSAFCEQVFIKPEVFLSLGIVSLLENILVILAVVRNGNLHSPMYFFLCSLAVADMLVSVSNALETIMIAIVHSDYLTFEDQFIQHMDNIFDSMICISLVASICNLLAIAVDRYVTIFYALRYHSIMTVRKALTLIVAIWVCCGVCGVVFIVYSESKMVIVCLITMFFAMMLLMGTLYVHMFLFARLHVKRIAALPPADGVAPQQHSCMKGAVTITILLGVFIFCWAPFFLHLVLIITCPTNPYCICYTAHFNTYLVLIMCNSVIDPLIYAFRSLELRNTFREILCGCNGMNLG
T1 sequence (Q01726 whole entry): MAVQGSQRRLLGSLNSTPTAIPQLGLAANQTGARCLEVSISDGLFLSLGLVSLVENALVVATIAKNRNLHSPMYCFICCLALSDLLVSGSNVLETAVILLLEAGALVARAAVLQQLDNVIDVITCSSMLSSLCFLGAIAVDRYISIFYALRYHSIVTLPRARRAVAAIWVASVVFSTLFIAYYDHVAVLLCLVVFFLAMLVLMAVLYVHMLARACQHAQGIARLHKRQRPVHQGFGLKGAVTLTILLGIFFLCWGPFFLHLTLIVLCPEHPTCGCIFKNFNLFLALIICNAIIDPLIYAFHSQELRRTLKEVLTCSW
Chain of Melanocortin receptor 5 (P33032 whole entry): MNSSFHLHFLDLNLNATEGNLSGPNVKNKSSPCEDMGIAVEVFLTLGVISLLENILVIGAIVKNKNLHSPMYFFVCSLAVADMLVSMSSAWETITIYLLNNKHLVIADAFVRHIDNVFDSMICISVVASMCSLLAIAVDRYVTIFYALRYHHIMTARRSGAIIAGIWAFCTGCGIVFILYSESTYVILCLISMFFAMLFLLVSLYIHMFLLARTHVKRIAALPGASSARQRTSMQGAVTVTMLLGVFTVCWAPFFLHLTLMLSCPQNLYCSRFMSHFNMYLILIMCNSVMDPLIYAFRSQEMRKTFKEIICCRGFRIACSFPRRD

SMILES | pKi [1] | pKi (Melanocortin receptor 3 [2]) | pKi (Melanocortin receptor 4 [3]; hek2936e) | pEC50 [4] | pEC50 (Melanocortin receptor 3 [5]) | pEC50 (Melanocortin receptor 4 [6]; hek2936e) | pEC50 (Melanocortin receptor 5) | Ratio Ki (Homo sapiens [7]) | Ratio Ki (Homo sapiens [8]) | Ratio EC50 (Homo sapiens [9]) | Ratio EC50 (Homo sapiens [10]) | Ki [1] [nM] | Ki (Melanocortin receptor 3 [2]) [nM] | Ki (Melanocortin receptor 4 [3]) [nM] | EC50 ([4]; read-out: EC50) [nM] | EC50 ([4]; read-out: pEC50 (converted)) [nM] | EC50 (Melanocortin receptor 3 [5]) [nM] | EC50 (Melanocortin receptor 4 [6]) [nM]
CC[C@H](C)[C@@H]1NC(=O)[C@@H]2CCCN2C(=O)[C@H](Cc2c[nH]c3ccccc23)NC(=O)[C@H](CCCNC(=N)N)N(C)C(=O)[C@H](Cc2ccccc2)NC(=O)[C@H](Cc2cnc[nH]2)NC(=O)[C@H]([C@@H](C)O)NC(=O)[C@H](NC(C)=O)CCSSCC[C@H](C(N)=O)NC1=O | 7.24 | 5.2 | 6.53 | 8.32 | 6.72 | 7.32 | 5.38 | 110 | 5 | 40 | 10 |  |  |  |  |  |  | 
CC[C@H](C)[C@@H]1NC(=O)[C@@H]2CCCN2C(=O)[C@H](Cc2c[nH]c3ccccc23)NC(=O)[C@H](CCCNC(=N)N)N(C)C(=O)[C@H](Cc2ccccc2)NC(=O)[C@H](Cc2cnc[nH]2)NC(=O)[C@H]([C@@H](C)O)NC(=O)[C@H](NC(C)=O)CCSCc2ccc(cc2)CSCC[C@H](C(N)=O)NC1=O | 7 | 4.89 |  | 8.4 | 6.3 |  | 4.71 |  |  |  |  |  |  |  |  |  |  | 
CCCC[C@@H]1NC(=O)[C@@H]2CSc3nnc(c4c3CCC3C(CC4)C3COC(=O)NCCOCCOCCN)SC[C@H](NC(=O)[C@H](CCCNC(=N)N)NC(=O)[C@H](CC(=O)O)NC(=O)[C@H](Cc3c[nH]c4ccccc34)NC(=O)[C@H](CCCNC(=N)N)NC(=O)[C@H](Cc3ccccc3)NC(=O)[C@H](Cc3cnc[nH]3)NC(=O)CNC1=O)C(=O)N[C@@H](Cc1cnc[nH]1)C(=O)N[C@@H](Cc1ccccc1)C(=O)N[C@@H](CCCNC(=N)N)C(=O)N[C@@H](Cc1c[nH]c3ccccc13)C(=O)N[C@@H](CCCNC(=N)N)C(=O)N2 (some centres not stated) (cyclo(CHFRWRC[Nle]GHFRWDR); linker 1-7 via X2) |  |  |  |  |  |  |  | 89 | 347 | 12 | 123 | 0.0575 | 5.13 | 20 | < 0.009 | < 0.00912 | 0.107 | 1.12
C#CCCCCN1C(=O)C2=C(SC[C@@H]3NC(=O)[C@H](CCCNC(=N)N)NC(=O)[C@H](CC(=O)O)NC(=O)[C@H](Cc4c[nH]c5ccccc45)NC(=O)[C@H](CCCNC(=N)N)NC(=O)[C@H](Cc4ccccc4)NC(=O)[C@H](Cc4cnc[nH]4)NC(=O)CNC(=O)[C@H](CCCC)NC(=O)[C@H](CS2)NC(=O)[C@H](CCCNC(=N)N)NC(=O)[C@H](Cc2c[nH]c4ccccc24)NC(=O)[C@H](CCCNC(=N)N)NC(=O)[C@H](Cc2ccccc2)NC(=O)[C@H](Cc2cnc[nH]2)NC3=O)C1=O (cyclo(CHFRWRC[Nle]GHFRWDR); linker 1-7 via X4) |  |  |  |  |  |  |  | 9 | 35 | 2 | 27 | 1.78 | 16.6 | 61.7 |  | 0.0813 | 0.158 | 2.19
CC[C@H](C)[C@@H]1NC(=O)[C@@H]2CCCN2C(=O)[C@H](Cc2c[nH]c3ccccc23)NC(=O)[C@H](CCCNC(=N)N)N(C)C(=O)[C@H](Cc2ccccc2)NC(=O)[C@H](Cc2cnc[nH]2)NC(=O)[C@H]([C@@H](C)O)NC(=O)[C@@H](NC(C)=O)CSCc2ccc(cc2)CSC[C@@H](C(N)=O)NC1=O (Ac-CTHF[NMeR]WPIC-NH2; linker 1-9 via pXylylene) |  |  |  |  |  |  |  | 87 | 7 | 32 | 60 | 112 | 9770 | 759 |  | 5.13 | 162 | 309
CC[C@H](C)[C@@H]1NC(=O)[C@@H]2CCCN2C(=O)[C@H](Cc2c[nH]c3ccccc23)NC(=O)[C@H](CCCNC(=N)N)N(C)C(=O)[C@H](Cc2ccccc2)NC(=O)[C@H](Cc2cnc[nH]2)NC(=O)[C@H]([C@@H](C)O)NC(=O)[C@@H](NC(C)=O)CSCc2ccccc2CSC[C@@H](C(N)=O)NC1=O (Ac-CTHF[NMeR]WPIC-NH2; linker 1-9 via oXylylene) |  |  |  |  |  |  |  | 191 | 33 | 58 | 212 | 64.6 | 12300 | 2140 |  | 1.86 | 295 | 398
CCCC[C@@H]1NC(=O)[C@@H]2CSC3=C(SC[C@H](NC(=O)[C@H](CCCNC(=N)N)NC(=O)[C@H](CC(=O)O)NC(=O)[C@H](Cc4c[nH]c5ccccc45)NC(=O)[C@H](CCCNC(=N)N)NC(=O)[C@H](Cc4ccccc4)NC(=O)[C@H](Cc4cnc[nH]4)NC(=O)CNC1=O)C(=O)N[C@@H](Cc1cnc[nH]1)C(=O)N[C@@H](Cc1ccccc1)C(=O)N[C@@H](CCCNC(=N)N)C(=O)N[C@@H](Cc1c[nH]c4ccccc14)C(=O)N[C@@H](CCCNC(=N)N)C(=O)N2)C(=O)NC3=O (cyclo(CHFRWRC[Nle]GHFRWDR); linker 1-7 via Maleimide(3,4-diyl)) |  |  |  |  |  |  |  | 8 | 22 | 1 | 17 | 3.63 | 28.2 | 81.3 |  | 0.288 | 0.398 | 5.01
CCCC[C@@H]1NC(=O)[C@@H]2CSc3nnc(c4c3CCC3C(CC4)C3COC(=O)NCCOCCOCCOCCOCCC(=O)O)SC[C@H](NC(=O)[C@H](CCCNC(=N)N)NC(=O)[C@H](CC(=O)O)NC(=O)[C@H](Cc3c[nH]c4ccccc34)NC(=O)[C@H](CCCNC(=N)N)NC(=O)[C@H](Cc3ccccc3)NC(=O)[C@H](Cc3cnc[nH]3)NC(=O)CNC1=O)C(=O)N[C@@H](Cc1cnc[nH]1)C(=O)N[C@@H](Cc1ccccc1)C(=O)N[C@@H](CCCNC(=N)N)C(=O)N[C@@H](Cc1c[nH]c3ccccc13)C(=O)N[C@@H](CCCNC(=N)N)C(=O)N2 (some centres not stated) (cyclo(CHFRWRC[Nle]GHFRWDR); linker 1-7 via X5) |  |  |  |  |  |  |  | 56 | 263 | 7 | 117 | 0.631 | 35.5 | 166 |  | 0.0891 | 0.603 | 10.5
CC[C@H](C)[C@@H]1NC(=O)[C@@H]2CCCN2C(=O)[C@H](Cc2c[nH]c3ccccc23)NC(=O)[C@H](CCCNC(=N)N)N(C)C(=O)[C@H](Cc2ccccc2)NC(=O)[C@H](Cc2cnc[nH]2)NC(=O)[C@H]([C@@H](C)O)NC(=O)[C@@H](NC(C)=O)CSSC[C@@H](C(N)=O)NC1=O (Ac-CTHF[NMeR]WPIC-NH2; disulfide 1-9) |  |  |  |  |  |  |  | 20 | 2 | 5 | 7 | 195 | 3980 | 347 |  | 8.71 | 39.8 | 60.3
CCCC[C@@H]1NC(=O)[C@@H]2CSc3c(F)c(F)c(c(F)c3F)SC[C@H](NC(=O)[C@H](CCCNC(=N)N)NC(=O)[C@H](CC(=O)O)NC(=O)[C@H](Cc3c[nH]c4ccccc34)NC(=O)[C@H](CCCNC(=N)N)NC(=O)[C@H](Cc3ccccc3)NC(=O)[C@H](Cc3cnc[nH]3)NC(=O)CNC1=O)C(=O)N[C@@H](Cc1cnc[nH]1)C(=O)N[C@@H](Cc1ccccc1)C(=O)N[C@@H](CCCNC(=N)N)C(=O)N[C@@H](Cc1c[nH]c3ccccc13)C(=O)N[C@@H](CCCNC(=N)N)C(=O)N2 (cyclo(CHFRWRC[Nle]GHFRWDR); linker 1-7 via C6F4(1,4-diyl)) |  |  |  |  |  |  |  | 15 | 58 | 2 | 29 | 0.794 | 11.7 | 45.7 |  | 0.123 | 0.275 | 3.55
